Data: PMC10499049, “Characterization of norbelladine synthase and noroxomaritidine/norcraugsodine reductase reveals a novel catalytic route for the biosynthesis of Amaryllidaceae alkaloids including the Alzheimer’s drug galanthamine” (Frontiers in Plant Science, 2023)

Legend:
[1] = target: N. papyraceus noroxomaritidine/norcraugsodine reductase, yeast two-hybrid fusions (Narcissus papyraceus)
NpNR = target: T1, NpNR (Narcissus papyraceus, UniProt A0A346TLF8); experiment: HPLC-MS/MS of norbelladine formed, with and without NADPH; type: biochemical; details: 1 mM NADPH; 10 uM tyramine, 300 uM 3,4-DHBA; 100 mM sodium citrate pH 6.0; 35 C; 2 h
T1 construct: gene NorRed1; full-length 269 aa (29 kDa), N-terminal MBP fusion (pMAL-c2x), tag kept, E. coli Rosetta (DE3) pLysS
T1 sequence (A0A346TLF8 1-269): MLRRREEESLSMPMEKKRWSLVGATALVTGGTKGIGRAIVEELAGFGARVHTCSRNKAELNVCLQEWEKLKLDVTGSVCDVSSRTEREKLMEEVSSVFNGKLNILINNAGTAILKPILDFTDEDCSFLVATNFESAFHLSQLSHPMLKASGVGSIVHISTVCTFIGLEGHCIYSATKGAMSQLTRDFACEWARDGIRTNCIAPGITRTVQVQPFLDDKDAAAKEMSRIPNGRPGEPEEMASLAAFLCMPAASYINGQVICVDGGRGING

LaNR = target: T2, LaNR (Leucojum aestivum, UniProt Z9Z857OJM6); experiment: as above; type: biochemical; details: […] NADPH; […] tyramine, […],4-DHBA; […] sodium citrate pH […]; […] C; […] h
T2 construct: full-length 269 aa (29 kDa), N-terminal MBP fusion (pMAL-c2x), tag kept, E. coli Rosetta (DE3) pLysS
T2 sequence (Z9Z857OJM6 1-271): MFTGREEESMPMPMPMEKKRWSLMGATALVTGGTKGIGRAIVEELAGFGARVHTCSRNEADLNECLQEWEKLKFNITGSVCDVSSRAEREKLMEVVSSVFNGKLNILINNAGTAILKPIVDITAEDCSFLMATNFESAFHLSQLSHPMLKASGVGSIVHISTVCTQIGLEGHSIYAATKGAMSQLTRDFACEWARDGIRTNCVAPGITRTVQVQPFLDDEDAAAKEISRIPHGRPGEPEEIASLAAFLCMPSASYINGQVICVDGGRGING

Sequence of N. papyraceus noroxomaritidine/norcraugsodine reductase, yeast two-hybrid fusions (Narcissus papyraceus) (A0A346TLF8 entry or part of it): as the sequence (A0A346TLF8 1-269) above

Compound | norbelladine produced by yeast cultures co-expressing NpNBS and NpNR, fed with tyramine and 3,4-DHBA (HPLC-MS/MS, peak area relative to papaverine); none detected with either enzyme alone (relative peak area ratio) [1] | HPLC-MS/MS of norbelladine formed, with and without NADPH (NpNR) | HPLC-MS/MS of norbelladine formed, with and without NADPH (LaNR)
N. papyraceus norbelladine synthase, yeast two-hybrid fusions (enzyme) | 0.22 |  | 
NC(=O)C1=CN([C@@H]2O[C@H](COP(=O)(O)OP(=O)(O)OC[C@H]3O[C@@H](n4cnc5c(N)ncnc54)[C@H](OP(=O)(O)O)[C@@H]3O)[C@@H](O)[C@H]2O)C=CC1 [NADPH] |  | NR assays lacking NADPH resulted in no norbelladine production | NR assays lacking NADPH resulted in no norbelladine production
